Experimental data published in publication PMC5082338, “Different Culture Metabolites of the Red Sea Fungus Fusarium equiseti Optimize the Inhibition of Hepatitis C Virus NS3/4A Protease (HCV PR)” (Marine Drugs, 2016).
Several values for one entry are separate records, joined by “and”; a condition that tells them apart may be missing. Identical values can stand only once. Like-named read-outs stand apart in the source and are kept apart here. Peptide text beside a SMILES is read from it.

B1: T-I: soybean trypsin-chymotrypsin inhibitor (positive control for trypsin) (protein)
chain: DDESSKPCCDQCACTKSNPPQCRCSDMRLNSCHSACKSCICALSYPAQCFCVDITDFCYEPCKPSEDDKEN
modifications: mature limits and check

Columns and labels:
Staphylococcus aureus = assay: Antimicrobial activity, inhibition zone; format: cell-based; conditions: for zone of inhibition: read-out: Inhibition zone, Staphylococcus aureus
From the text: Table 1 Antimicrobial potential of the culture extracts and isolated compounds from F. equiseti. | column: Gram-Positive Bacteria / Staphylococcus aureus

Bacillus megaterium = assay: Antimicrobial activity, inhibition zone; format: cell-based; conditions: Priestia megaterium; for zone of inhibition: read-out: Inhibition zone, Bacillus megaterium
From the text: Table 1 Antimicrobial potential of the culture extracts and isolated compounds from F. equiseti. | column: Gram-Positive Bacteria / Bacillus megaterium

Bacillus subtilis = assay: Antimicrobial activity, inhibition zone; format: cell-based
Candida albicans = assay: Antimicrobial activity, inhibition zone; format: cell-based; conditions: oxytetracycline control 30 μg
HCV NS3/4A protease = HCV NS3/4A protease (Hepatitis C virus genotype 1b (strain HC-J4), UniProt O92972); assay: HCV protease inhibitory activity (SensoLyte 520 HCV protease assay kit, fluorimetric); format: biochemical; conditions: for Inhibition of HCV PR (in words): compared to other constituents; for IC50: recHCV PR, 37 °C, 30 min
From the text: HCV NS3 is considered as a serine protease, its active site contains serine 139 amino acid residues, which attack the substrate by forming a reversible covalent bond with its amino acid residues. To be activated, the HCV NS3 has to be coupled with an activating protein named (4A), and is therefore given the name HCV NS3/4A, which is active only in its heterodimer form. The culture extracts of the endophytic fungus F. equiseti and their isolated compounds were screened for inhibition of HCV protease using the hepatitis virus C NS3 protease inhibitor 2 as a positive control. Moreover, the selectivity of the active metabolites toward HCV NS3/4A protease (viral protease) and not human serine proteases such as trypsin and chymotrypsin has been confirmed through investigating the inhibitory activity of these extracts and/or their isolated chemical constituents on human recombinant Trypsin.
(§1) Sensolyte™ 520 HCV Protease assay kit Fluorimetric (cat#AS-71145), HCV NS3/4A protease and Sensolyte™, Green protease Assay Kit Fluorimetric (cat#AS-71124), and Hepatitis Virus C NS3 protease inhibitor 2 (cat#AS-25346) were purchased from AnaSpec Inc., San Jose, CA, USA. Chymotrypsin inhibitor (Soybean trypsin) was purchased from Sigma Aldrich Co. (St. Louis, MO, USA), and Becton Dickinson Falcon™ (Tokyo, Japan). Microtest 384-well 120 μL black assay plates, no lid, non-sterile, were purchased from Becton Dickinson Inc, Franklin Lakes, NJ, USA. Culture media: Czapek agar, bacteriological peptone, malt extract, yeast extract powder, nutrient agar and potato dextrose broth were procured from Lab M, Bury, UK; Glucose, (Acros Organics, Geel, Belgium), K2HPO4 (Laboratory Reagent, Mumbai, India), MgSO4 (Oxford Laboratory Reagent, Mumbai, India), agar (Sisco Research Laboratories Pvt. Ltd., Mumbai, India).
Samples of 2 μL of culture broth fungus extracts and isolated compounds dissolved in dimethyl sulfoxide (DMSO) were placed in each well of a 384-well microplate, then 8 μL of recHCV PR (0.5 μg/mL) were added, and the plate was briefly agitated. Finally, 10 μL of the freshly prepared substrate [Ac-Asp-Glu-Dap (QXLTM520)-Glu-Glu-Abu-COO-Ala-Ser-Cys(5-FAMsp)-NH2] were added with sequential rotational shaking. The reaction mixture was incubated at 37 °C for 30 min. The fluorimetric analyses were performed on an automated TECAN GENios plate reader (Männedorf, Switzerland) with excitation and emission wavelengths at 485 and 520 nm, respectively. Each sample was tested in triplicate. HCV PR inhibition (%) was calculated using the following equation: % Inhibition = (Fsubstrate − Ftestsample) × 100/Fsubstrate where Fsubstrate is the fluorescence of the enzyme and substrate only, and Ftestsample is the fluorescence of the assay mixture with the added sample.

[1] = biological target: T1, human recombinant Trypsin (Homo sapiens, UniProt P07477); assay: Green protease assay (trypsin inhibitory activity); format: biochemical; conditions: 37 °C, 30 min
T1 construct: purchased AnaSpec Inc., San Jose, CA, USA AS-71124 (Green protease Assay Kit; no catalogue number for trypsin itself)
Protocol: as §1, with “Chymotrypsin” for “Sensolyte™ 520 HCV Protease assay kit Fluorimetric (cat#AS-71145), HCV NS3/4A protease and Sensolyte™, Green protease Assay Kit Fluorimetric (cat#AS-71124), and Hepatitis Virus C NS3 protease inhibitor 2 (cat#AS-25346) were purchased from AnaSpec Inc., San Jose, CA, USA. Chymotrypsin”
Then 17.5 μL of assay buffer and 2.5 μL of trypsin (0.1 U/μL) were added and the plate was briefly agitated. […] The positive control was the soybean trypsin-chymotrypsin inhibitor. Inhibition was calculated as above for HCV PR assay.

[2] = Bacillus subtilis, oxytetracycline control 30 μg
[3] = read-out: IC50 HCV Protease Inhibitory Activity

Sequence of HCV NS3/4A protease (O92972 1027-1207, other chains not shown): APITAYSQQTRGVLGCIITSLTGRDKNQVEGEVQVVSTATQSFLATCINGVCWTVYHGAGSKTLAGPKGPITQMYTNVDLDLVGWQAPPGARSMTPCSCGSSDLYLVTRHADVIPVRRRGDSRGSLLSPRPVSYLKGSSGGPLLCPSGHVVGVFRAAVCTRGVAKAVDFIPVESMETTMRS

Molecule	zone of inhibition (Staphylococcus aureus; oxytetracycline control 30 μg) [mm]	zone of inhibition (Bacillus megaterium; oxytetracycline control 30 μg) [mm]	zone of inhibition (Bacillus subtilis; [2]) [mm]	IC50 (HCV NS3/4A protease; [3])	zone of inhibition (Candida albicans) [mm]	IC50 [1] [µM]	also measured
CN(C)[C@@H]1C(O)=C(C(N)=O)C(=O)[C@@]2(O)C(O)=C3C(=O)c4c(O)cccc4[C@@](C)(O)[C@H]3[C@H](O)[C@@H]12 [Oxytetracycline, reference compound]	17	20	18				
CC(C)CC1NC(=O)C(C)NC1=O [compound 1, cyclo-L-Ala-L-Leu]				58.3 ± 3.51 µM			zone of inhibition at 30 µg/disc (Bacillus megaterium; oxytetracycline control 30 μg): 12 mm; zone of inhibition at 30 µg/disc (Candida albicans): 13 mm; Inhibition of HCV PR (in words) (HCV NS3/4A protease): inactive
O=C1c2cc(O)cc(O)c2C(=O)c2c(O)cc(CO)cc21 [compound 14, ω-hydroxyemodin]	12	17	9	10.7 µM	18	48.5	
CC(C=CC=C(C)C(O)C(C)C1CC(O)C(C)=CC=CC(C)C2CC(CC=CC(=O)O1)CC(=O)O2)=Cc1coc(C)n1 (stereo not shown) [compound 6, 17-demethyl-2,11-dideoxy-rhizoxin]					19	145 ± 3.66	zone of inhibition (Staphylococcus aureus): 12 mm; zone of inhibition (Bacillus megaterium): 8 mm; IC50 (HCV NS3/4A protease; IC50 HCV Protease Inhibitory Activity): 34.4 µM
COc1cc(O)c2c(=O)c3c(C)cc(O)cc3oc2c1 [compound 12, griseoxanthone C]				19.8 µM and 19.9 µM		51.3	zone of inhibition at 30 µg/disc (Bacillus megaterium; oxytetracycline control 30 μg): 10 mm; zone of inhibition at 30 µg/disc (Bacillus subtilis; [2]): 13 mm
CC1=C(O)C(=O)C(Cl)=C(O)C1=O [compound 11, 5-Chloro-3,6-dihydroxy-2-methyl-1,4-benzoquinone]				35.1 µM		294.8 ± 2.87	
Nc1ncnc2c1ncn2[C@@H]1O[C@H](CO)C[C@H]1O [compound 17, cordycepin]	16	11	9	22.3 µM and 22.4 µM	14	> 1000	
O=C1N[C@H](Cc2ccc(O)cc2)C(=O)N2CCC[C@H]12 [compound 15, cyclo(L-Tyr-L-Pro)]				18.2 ± 1.7 µM		37.9 ± 3.8	zone of inhibition at 30 µg/disc (Staphylococcus aureus; oxytetracycline control 30 μg): 11 mm; zone of inhibition at 30 µg/disc (Bacillus megaterium; oxytetracycline control 30 μg): 8 mm; zone of inhibition at 30 µg/disc (Candida albicans): 13 mm
CC(C)[C@@H](C)CC[C@@H](C)C1CCC2C3=CC=C4C[C@@H](O)CC[C@]4(C)C3CC[C@@]21C (stereo partly drawn) [compound 8, ergostra-5,7-dien-3β-ol]				77.1 ± 4.55 µM			Inhibition of HCV PR (in words) (HCV NS3/4A protease): inactive
Nc1ncnc2c1ncn2C1OC(CO)C(O)C1O (stereo not shown) [compound 18, ara-A]	10	12	12	24.5 µM		138 ± 2.49	
CC(C)[C@@H]1NC(=O)[C@@H]2CCCN2C1=O [compound 2, cyclo(L-Pro-L-Val)]		11	18	23.2 µM and 23.3 µM	9	54.2 ± 1.88	Sensitivity of B. subtilis (in words) (Bacillus subtilis): highly sensitive
CC(C)CC1NC(=O)C2CCCN2C(=O)C(Cc2ccccc2)NC(=O)C2CCCN2C1=O (stereo not drawn) [compound 5, cyclo[Phenylalanyl-Pro-Leu-Pro]] (cyclo(FPLP); configuration not given here)	9	10		29.4 µM and 29.5 µM	12	226 ± 4.26	
Cc1cc(O)c2c(c1)C(=O)c1cccc(O)c1C2=O [compound 13, chrysophanol]	15	10		> 1000 µM	11		
Cc1c[nH]c(=O)[nH]c1=O [compound 4, thymine]				51.8 ± 2.49 µM			Inhibition of HCV PR (in words) (HCV NS3/4A protease): inactive
CCO[C@@H]1O[C@H](CO)[C@@H](O)[C@H](O)[C@H]1O [compound 19, ethyl-O-β-glucoside]				> 1000 µM			
OCc1ccc(-c2nccc3c2[nH]c2ccccc23)o1 [compound 16, perlolyrin]	14	9	8	37.8 µM and 37.9 µM	10	> 1000	
CC[C@@H](CC[C@@H](C)C1CCC2C3CC=C4C[C@@H](O[C@@H]5O[C@H](CO)[C@@H](O)[C@H](O)[C@H]5O)CC[C@]4(C)C3CC[C@@]21C)C(C)C (stereo partly drawn) [compound 9, β-sitosterol 3-O-β-glucoside]	9	14	11	76.6 ± 3.78 µM	10		Inhibition of HCV PR (in words) (HCV NS3/4A protease): inactive
B1						0.5	
